Source: PubChem BioAssay (NCI)
“And” between values parts separate entries of the source, which are not always exact repeats. Equal entries are not always repeated.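 All cell lines were grown in 96-well plates and treated with compound for 48 hours. GI50 = concentration required for 50% inhibition of growth. TGI: concentration producing complete growth inhibition.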

How the values were obtained:
Test in all cases: growth of human tumour cells (NCI), 48 h
A549 NSCLC = tested on: A549 NSCLC
COLO 205 colon = tested on: COLO 205 colon
HS 578T breast = tested on: HS 578T breast
KM12 colon = tested on: KM12 colon
M14 melanoma = tested on: M14 melanoma
MDA-MB-231 breast = tested on: MDA-MB-231 breast
OVCAR-5 ovarian = tested on: OVCAR-5 ovarian
SK-MEL-5 melanoma = tested on: SK-MEL-5 melanoma
U251 CNS = tested on: U251 CNS
UACC-257 melanoma = tested on: UACC-257 melanoma

SMILES: O=c1cccc(C#CC#C/C=C/CO)o1
- GI50 (A549 NSCLC): 3.65 µM
- TGI (A549 NSCLC): 13.1 µM
- GI50 (COLO 205 colon): 2020 nM
- TGI (COLO 205 colon): 3.56 µM
- GI50 (HS 578T breast): 6870 nM
- TGI (HS 578T breast): 39.9 µM
- GI50 (KM12 colon): 1640 nM
- TGI (KM12 colon): 4.34 µM
- GI50 (M14 melanoma): 4.12 µM
- GI50 (MDA-MB-231 breast): 1870 nM
- TGI (MDA-MB-231 breast): 4.03 µM
- GI50 (OVCAR-5 ovarian): 2090 nM
- TGI (OVCAR-5 ovarian): 4.34 µM
- GI50 (SK-MEL-5 melanoma): 2480 nM
- TGI (SK-MEL-5 melanoma): 6.24 µM
- GI50 (U251 CNS): 1890 nM
- TGI (U251 CNS): 3.84 µM
- GI50 (UACC-257 melanoma): 2.07 µM
- TGI (UACC-257 melanoma): 4.7 µM

SMILES: CC1=C(C(=O)Nc2ccccc2C)C(c2ccc(C3C(C(=O)Nc4ccccc4C)=CNC=C3C(=O)Nc3ccccc3C)cc2)C(C(=O)Nc2ccccc2C)=C(C)N1
- TGI (A549 NSCLC): > 100 µM
- TGI (COLO 205 colon): 50.1 µM
- TGI (KM12 colon): 29.2 µM
- TGI (M14 melanoma): 33 µM
- TGI (OVCAR-5 ovarian): 44.4 µM
- TGI (SK-MEL-5 melanoma): 17.8 µM
- TGI (U251 CNS): 24.7 µM
- TGI (UACC-257 melanoma): 33.2 µM

SMILES: CC1CCC23COC(=O)C2C(O)CCC3C1(C)CC(O)c1ccoc1 (centres undefined)
- TGI (A549 NSCLC): > 100 µM
- TGI (COLO 205 colon): > 100 µM
- TGI (KM12 colon): > 100 µM
- TGI (M14 melanoma): > 100 µM
- TGI (OVCAR-5 ovarian): > 100 µM
- TGI (SK-MEL-5 melanoma): > 100 µM
- TGI (U251 CNS): > 100 µM
- TGI (UACC-257 melanoma): > 100 µM

SMILES: O=C1C(N2C(=O)c3ccccc3C2=O)CN1C(COCc1ccccc1)c1ccc(OCc2ccccc2)cc1 (centres undefined)
- TGI (A549 NSCLC): > 100 µM
- TGI (COLO 205 colon): > 100 µM
- TGI (KM12 colon): > 100 µM
- TGI (M14 melanoma): > 100 µM
- TGI (OVCAR-5 ovarian): > 100 µM
- TGI (SK-MEL-5 melanoma): > 100 µM
- TGI (U251 CNS): > 100 µM
- TGI (UACC-257 melanoma): > 100 µM

SMILES: COc1ccc(Nc2ncccc2C(=O)NCc2cn(Cc3cccc(Oc4ccccc4)c3)nn2)cc1
- GI50 (A549 NSCLC): 3.44 µM
- TGI (A549 NSCLC): > 100 µM
- GI50 (COLO 205 colon): 2860 nM
- TGI (COLO 205 colon): 7.93 µM
- GI50 (HS 578T breast): 5900 nM
- TGI (HS 578T breast): > 100 µM
- GI50 (KM12 colon): 3430 nM
- TGI (KM12 colon): > 100 µM
- GI50 (MDA-MB-231 breast): 3090 nM
- TGI (MDA-MB-231 breast): 8.62 µM
- GI50 (OVCAR-5 ovarian): 4230 nM
- TGI (OVCAR-5 ovarian): > 100 µM
- GI50 (SK-MEL-5 melanoma): 2900 nM
- TGI (SK-MEL-5 melanoma): > 100 µM
- GI50 (U251 CNS): 3910 nM
- TGI (U251 CNS): > 100 µM
- GI50 (UACC-257 melanoma): 4.82 µM
- TGI (UACC-257 melanoma): > 100 µM

SMILES: CN(C)CCC1(C2=CCCC2)CC/C(=C\c2ccccc2)C1=O (centres undefined)
- TGI (A549 NSCLC): 41.9 µM
- TGI (COLO 205 colon): 28.3 µM
- TGI (KM12 colon): 28.8 µM
- TGI (M14 melanoma): 30.2 µM
- TGI (OVCAR-5 ovarian): 35.7 µM
- TGI (SK-MEL-5 melanoma): 27.8 µM
- TGI (U251 CNS): 30.3 µM
- TGI (UACC-257 melanoma): 28.5 µM

SMILES: COc1ccc(-c2nocc2-c2cc(OC)c(OC)c(OC)c2)cc1
- GI50 (A549 NSCLC): 0.0907 µM
- TGI (A549 NSCLC): > 100 µM
- GI50 (COLO 205 colon): 53.1 nM
- TGI (COLO 205 colon): 1.24 µM
- GI50 (HS 578T breast): 216 nM
- TGI (HS 578T breast): > 100 µM
- GI50 (KM12 colon): 38.6 nM
- TGI (KM12 colon): 14.1 µM
- GI50 (M14 melanoma): 0.054 µM
- TGI (M14 melanoma): 5.82 µM
- GI50 (MDA-MB-231 breast): 350 nM
- TGI (MDA-MB-231 breast): > 58.4 µM
- GI50 (OVCAR-5 ovarian): 1380 nM
- TGI (OVCAR-5 ovarian): > 100 µM
- GI50 (SK-MEL-5 melanoma): 73.6 nM
- TGI (SK-MEL-5 melanoma): 4.45 µM
- GI50 (U251 CNS): 79.3 nM
- TGI (U251 CNS): > 81.1 µM

SMILES: O=c1[nH]c(/C=C(\O)c2ccncc2)nc2ccccc12
- TGI (A549 NSCLC): > 100 µM
- TGI (COLO 205 colon): > 100 µM
- TGI (M14 melanoma): > 100 µM
- TGI (OVCAR-5 ovarian): > 100 µM
- TGI (SK-MEL-5 melanoma): > 100 µM
- TGI (U251 CNS): > 100 µM
- TGI (UACC-257 melanoma): > 100 µM

SMILES: COC(=O)C(Cc1nc2ccccc2[nH]c1=O)C(=O)C(=O)Nc1ccc(OC)cc1[N+](=O)[O-] (centres undefined)
- TGI (A549 NSCLC): > 100 µM
- TGI (COLO 205 colon): > 100 µM
- TGI (KM12 colon): > 100 µM
- TGI (M14 melanoma): > 100 µM
- TGI (OVCAR-5 ovarian): > 100 µM
- TGI (SK-MEL-5 melanoma): > 100 µM
- TGI (U251 CNS): > 100 µM
- TGI (UACC-257 melanoma): > 100 µM

SMILES: O=c1/c(=C/c2ccc3c(c2)OCO3)sc2nnc(-c3ccco3)n12
- TGI (A549 NSCLC): > 100 µM
- TGI (COLO 205 colon): > 100 µM
- TGI (KM12 colon): > 100 µM
- TGI (M14 melanoma): > 100 µM
- TGI (OVCAR-5 ovarian): > 100 µM
- TGI (SK-MEL-5 melanoma): > 100 µM
- TGI (U251 CNS): > 100 µM
- TGI (UACC-257 melanoma): > 100 µM

SMILES: O=S(=O)(NCCCNc1cc(-c2cn(-c3ccccc3)nc2-c2cccc(O)c2)ccn1)c1ccc(Cl)cc1
- GI50 (A549 NSCLC): 2.64 µM
- TGI (A549 NSCLC): 10.1 µM
- GI50 (COLO 205 colon): 1570 nM
- TGI (COLO 205 colon): 3.16 µM
- GI50 (HS 578T breast): 1160 nM
- TGI (HS 578T breast): 4.77 µM
- GI50 (KM12 colon): 1950 nM
- TGI (KM12 colon): 4.93 µM
- GI50 (M14 melanoma): 1.6 µM
- TGI (M14 melanoma): 3.2 µM
- GI50 (MDA-MB-231 breast): 1810 nM
- TGI (MDA-MB-231 breast): 4.69 µM
- GI50 (OVCAR-5 ovarian): 2040 nM
- TGI (OVCAR-5 ovarian): 5.64 µM
- GI50 (SK-MEL-5 melanoma): 1230 nM
- TGI (SK-MEL-5 melanoma): 2.55 µM
- GI50 (U251 CNS): 1350 nM
- TGI (U251 CNS): 3.47 µM

SMILES: CN(C)/C=N/c1nc2ncn(CCOC(=O)c3ccccc3)c2c(=O)[nH]1
- TGI (A549 NSCLC): > 100 µM
- TGI (COLO 205 colon): > 100 µM
- TGI (KM12 colon): > 100 µM
- TGI (M14 melanoma): > 100 µM
- TGI (OVCAR-5 ovarian): > 100 µM
- TGI (SK-MEL-5 melanoma): > 100 µM
- TGI (U251 CNS): > 100 µM
- TGI (UACC-257 melanoma): > 100 µM

SMILES: CCSc1nc2n(c(=S)n1)CCN2C
- TGI (A549 NSCLC): 61.3 µM
- TGI (KM12 colon): 52.3 µM
- TGI (M14 melanoma): 31.5 µM
- TGI (OVCAR-5 ovarian): 42.7 µM
- TGI (SK-MEL-5 melanoma): 30 µM
- TGI (U251 CNS): 41.2 µM
- TGI (UACC-257 melanoma): 25.5 µM

SMILES: CC(Oc1ccc2cc(C(=O)c3ccccc3)c(=O)oc2c1)C(=O)O (centres undefined)
- TGI (A549 NSCLC): > 100 µM
- TGI (COLO 205 colon): > 100 µM
- TGI (KM12 colon): > 100 µM
- TGI (M14 melanoma): > 100 µM
- TGI (SK-MEL-5 melanoma): > 100 µM
- TGI (U251 CNS): > 100 µM
- TGI (UACC-257 melanoma): > 100 µM

SMILES: O=C1OC2C(O)C(=O)OC2C1O (centres undefined)
- TGI (A549 NSCLC): > 100 µM
- TGI (COLO 205 colon): > 100 µM
- TGI (KM12 colon): > 100 µM
- TGI (M14 melanoma): > 100 µM
- TGI (MDA-MB-231 breast): > 100 µM
- TGI (OVCAR-5 ovarian): > 100 µM
- TGI (SK-MEL-5 melanoma): > 100 µM
- TGI (U251 CNS): > 100 µM
- TGI (UACC-257 melanoma): > 100 µM

SMILES: Cc1cc2c(cc1C)[n+](=O)c(C(=O)/C=C/c1ccccc1Cl)c(C)n2[O-]
- TGI (A549 NSCLC): > 100 µM
- TGI (COLO 205 colon): 36.9 µM
- TGI (KM12 colon): 96.2 µM
- TGI (M14 melanoma): 51.7 µM
- TGI (OVCAR-5 ovarian): > 100 µM
- TGI (SK-MEL-5 melanoma): 59.6 µM
- TGI (U251 CNS): 84.4 µM
- TGI (UACC-257 melanoma): 57.5 µM

SMILES: COc1ccc(C(=O)O)c(Cc2ccc3ccccc3c2)c1
- TGI (A549 NSCLC): > 100 µM
- TGI (COLO 205 colon): > 100 µM
- TGI (KM12 colon): > 100 µM
- TGI (M14 melanoma): > 100 µM
- TGI (OVCAR-5 ovarian): > 100 µM
- TGI (SK-MEL-5 melanoma): > 100 µM
- TGI (U251 CNS): > 100 µM
- TGI (UACC-257 melanoma): > 100 µM

SMILES: CC(=O)OCC1OC(n2c(-c3ccccc3)c(C)c(C)c(C#N)c2=S)C(OC(C)=O)C(OC(C)=O)C1OC(C)=O (centres undefined)
- GI50 (A549 NSCLC): 25.7 µM and > 100 µM
- TGI (A549 NSCLC): > 100 µM
- TGI (COLO 205 colon): > 100 µM
- TGI (KM12 colon): > 100 µM
- GI50 (M14 melanoma): 15.4 µM and 35 µM
- TGI (M14 melanoma): > 100 µM
- TGI (MDA-MB-231 breast): > 50 µM and 30.9 µM
- TGI (OVCAR-5 ovarian): > 100 µM
- TGI (SK-MEL-5 melanoma): > 100 µM
- TGI (U251 CNS): 34.6 µM
- TGI (UACC-257 melanoma): > 100 µM

SMILES: O=C1C(Cl)=C(Nc2cccc(O)c2)C(=O)N1c1cccc(Cl)c1Cl
- GI50 (A549 NSCLC): 15 µM
- TGI (A549 NSCLC): 45.9 µM
- GI50 (COLO 205 colon): 15300 nM
- TGI (COLO 205 colon): 38.9 µM
- GI50 (HS 578T breast): 1710 nM
- TGI (HS 578T breast): 14.4 µM
- GI50 (KM12 colon): 24600 nM
- TGI (KM12 colon): 86.8 µM
- GI50 (M14 melanoma): 14.8 µM
- TGI (M14 melanoma): 31.7 µM
- GI50 (MDA-MB-231 breast): 12300 nM
- TGI (MDA-MB-231 breast): 34.2 µM
- GI50 (OVCAR-5 ovarian): 22400 nM
- TGI (OVCAR-5 ovarian): 57.7 µM
- GI50 (SK-MEL-5 melanoma): 7010 nM
- TGI (SK-MEL-5 melanoma): 21.7 µM
- GI50 (U251 CNS): 12400 nM
- TGI (U251 CNS): 30.8 µM
